Here are results for three compounds from patent publication US20250248209A1, “LIGHT-EMITTING DEVICE” (SEMICONDUCTOR ENERGY LABORATORY CO., LTD., priority 2024, published 2025).

Values after ≈ are worked out from the molar mass of the structure shown. “Also recorded” adds a separate entry of the source.

This series in a line: Solubility test of each organic compound in pure water by LC-MS analysis. Type of series: physicochemical. Particulars: 1 mg compound in 1 mL water, ultrasonic waves five minutes, filtered, evaluated from LC peak area; for solubility at 5 min: pure water, thermodynamic from solid. As for the experimental part: In the LC-MS analysis, liquid chromatography (LC) separation was carried out with ACQUITY UPLC (Waters Corporation), and mass spectrometry (MS) analysis was carried out with Xevo G2 Tof MS (Waters Corporation). Note that this analysis was performed on Hid2Phen, Pyrrd-Phen, and PrdP2Phen. ACQUITY UPLC BEH C8 (2.1×100 mm, 1.7 μm) was used as a column for the LC separation. Acetonitrile was used for Mobile Phase A and a 0.1% aqueous solution of formic acid was used for Mobile Phase B. The injection amount of the sample was 5.0 μL. Note that in the analysis, the wavelength of a photodiode array detector was set to 263 nm±1 nm.
Then, in a 5-mL sample bottle, 1 mg of each organic compound was put and 1 mL of water was added thereto. The mixture was irradiated with ultrasonic waves for five minutes. The mixture was filtered through a membrane filter to remove the solid. The resulting solution was subjected to the LC-MS analysis to create a chromatogram. The solubility was evaluated from the area of a peak in the chromatograph.

What is called solubility is the concentration that dissolves in the medium under given conditions. The low end stands for little dissolved substance, the high end for much dissolved substance. Compound `c1cc(N2CC3CCCCC3C2)c2ccc3c(N4CC5CCCCC5C4)ccnc3c2n1` (stereo not drawn) [Hid2Phen, 4,7-di(2,3,3a,4,5,6,7,7a-octahydro-^1H-isoindol-2-yl)-1,10-phenanthroline] registered a solubility at 5 min of 5.5 µg/mL (≈ 12.9 µM).

In the case of `c1cc(N2CCCC2)c2ccc3c(N4CCCC4)ccnc3c2n1` [Pyrrd-Phen, 4,7-di-1-pyrrolidinyl-1,10-phenanthroline], the solubility at 5 min was not below 50 µg/mL.

With `c1cc(-c2ccc(N3CCCC3)cc2)c2ccc3c(-c4ccc(N5CCCC5)cc4)ccnc3c2n1` [PrdP2Phen, 4,7-bis[4-(1-pyrrolidinyl)phenyl]-1,10-phenanthroline], the “Solubility in pure water” value is “below the lower detection limit; also recorded: extremely low solubility in pure water; also recorded: Not detected”.
